# Assay results taken from patent US9234006B2, “Compounds” (Novacta Biosystems Limited, priority 2011, dated 2016).
# Legend:
# E. coli ATCC25922 = experiment: MIC susceptibility testing, broth microdilution in CaMHB; format: cell-based, Escherichia coli; conditions: Table 4A, different batches of cation-adjusted Muller-Hinton broth
# In short: (§1)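 Inoculum prep: 3 to 4 colonies into CaMHB, 18-20 h at 37° C/250 rpm; 100-fold subculture to OD600 0.2-0.3; further 100-fold dilution to inoculate. Duplicate determinations.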
# E. coli ATCC700928 = experiment: as above; format: cell-based, Escherichia coli; conditions: Table 4A, different batches of cation-adjusted Muller-Hinton broth
# In short: as §1
# E. coli NCTC12900 = experiment: as above; format: cell-based, Escherichia coli; conditions: Table 4A, different batches of cation-adjusted Muller-Hinton broth
# In short: as §1
# E. coli NCTC9001 = experiment: as above; format: cell-based, Escherichia coli; conditions: Table 4A, different batches of cation-adjusted Muller-Hinton broth
# In short: as §1
# P. aeruginosa ATCC 9721 = experiment: as above; format: cell-based, Pseudomonas aeruginosa; conditions: P. aeruginosa ATCC9721; Table 4A, different batches of cation-adjusted Muller-Hinton broth
# In short: as §1
# P. aeruginosa ATCC10145 = experiment: as above; format: cell-based, Pseudomonas aeruginosa; conditions: Table 4A, different batches of cation-adjusted Muller-Hinton broth
# In short: as §1
# P. aeruginosa ATCC27853 = experiment: as above; format: cell-based, Pseudomonas aeruginosa; conditions: Table 4A, different batches of cation-adjusted Muller-Hinton broth
# In short: as §1
# [1] = test system: P. aeruginosa ATCCCRM-9027; experiment: as above; format: cell-based, Pseudomonas aeruginosa; conditions: P. aeruginosa AATCCRM 9027; Table 4A, different batches of cation-adjusted Muller-Hinton broth
# In short: as §1
# K. pneumoniae ATCC 4352 = experiment: as above; format: cell-based, Klebsiella pneumoniae; conditions: K. pneumoniae ATCC4352; Table 4A, different batches of cation-adjusted Muller-Hinton broth
# In short: as §1
# K. pneumoniae NCTC7427 = experiment: as above; format: cell-based, Klebsiella pneumoniae; conditions: Table 4A, different batches of cation-adjusted Muller-Hinton broth
# In short: as §1
# K. pneumoniae NCTC8172 = experiment: as above; format: cell-based, Klebsiella pneumoniae; conditions: Table 4A, different batches of cation-adjusted Muller-Hinton broth
# In short: as §1
# A. baumannii ATCCBAA-747 = experiment: as above; format: cell-based, Acinetobacter baumannii; conditions: Table 4A, different batches of cation-adjusted Muller-Hinton broth
# In short: as §1
# A. baumannii NCTC13423 = experiment: as above; format: cell-based, Acinetobacter baumannii; conditions: Table 4A, different batches of cation-adjusted Muller-Hinton broth
# In short: as §1
# A. baumannii NCTC7844 = experiment: as above; format: cell-based, Acinetobacter baumannii; conditions: Table 4A, different batches of cation-adjusted Muller-Hinton broth
# In short: as §1
# [2] = test system: A. baumannii clinical isolates and resistant strains; format: cell-based; conditions: A. baumannii
# Method: (§2) The in vitro antibacterial activities of the compounds of examples 2 and 6 were evaluated against a panel of […] Gram-negative bacterial isolates alongside Colistin. The panel consisted of 100 clinical isolates of each of A. baumannii, E. coli, K. pneumoniae and P. aeruginosa. The panel represented the current epidemiology in Europe and the USA and included a number of relevant strains with defined resistant phenotypes to current clinically-used antibacterial agents. These resistant strains included 20 A. baumannii, 22 E. coli, 25 K. pneumoniae and 20 P. aeruginosa strains.
# (§3) All compounds were tested up to a maximum concentration of 64 μg/mL with the exception of colistin, which was evaluated up to a maximum concentration of 16 μg/mL.
# [3] = test system: E. coli clinical isolates and resistant strains; format: cell-based; conditions: E. coli
# Method: as §2, §3
# [4] = test system: K. pneumoniae clinical isolates and resistant strains; format: cell-based; conditions: K. pneumoniae
# Method: as §2, §3
# [5] = test system: P. aeruginosa clinical isolates and resistant strains; format: cell-based; conditions: P. aeruginosa
# Method: as §2, §3
# [6] = test system: Klebsiella pneumoniae ATCC10031; format: in vivo; conditions: neutropenic mice, thigh, K. pneumoniae ATCC10031, total daily dosage 10 mg/Kg; Table 5B
# Method: Groups of 5 female specific-pathogen-free CD-1 mice weighing 22±2 g were used. The animals were made neutropenic by intraperitoneal administration of cyclophosphamide on days −4 (150 mg/kg) and −1 (100 mg/kg). […] Examples 2, 4, 5, 6, 7, 8, 10, 11 and polymyxin B were prepared in Normal Saline at 2 mg/mL and the solution was adjusted to pH 6-7 by addition of 0.1M H2SO4 or 4.2% NaHCO3 as required. Twenty-four hours after infection, the mice were euthanized humanely. The muscle of the right thigh of each animal was harvested, homogenized, serially diluted and plated on Brain Heart Infusion agar+0.5% charcoal (w/v) for CFU determination. Decrease of the total CFU of right thigh as compared to control counts at 24 hrs post-infection was determined for each dose group. […] Using the same procedure as described above, the in vivo efficacy of three compounds of the invention (Examples 2,6, and 14) was evaluated in a mouse thigh infection model of Klebsiella pneumoniae ATCC10031, using Colistin (Polymyxin E) as comparator.
# HK-2 cell line = conditions: 24 h incubation, resazurin reduction; Table 7A; footnote c: solubility issues noted at top concentration
# Method: The renal cell toxicity of the compounds was assessed in an in vitro assay using the HK-2 cell line, an immortalized proximal tubule cell line derived from a normal human kidney. The endpoint to describe the toxicity of the compounds was the reduction of resazurin correlating with the metabolic activity of the cells.
# Cells were cultured in 150 cm^2 flasks in 25 mL supplemented KSF (with 5 ng/mL EGF and 50 μg/mL BPE). Cells were maintained at 70% confluence with a maximum of 25 passages. Day 1: Media was removed and cells were washed with 10 ml DPBS. […] After 1 to 2 minutes incubation, 14 ml media was added to the flask to inactivate the trypsin. The cell suspension was transferred to a centrifuge tube and the cells pelleted at 1000 rpm for 6 minutes. The cell pellet was then resuspended in fresh media supplemented with EGF and BPE. […] 7500 cells were dispensed in each well in a volume of 160 μl and incubated at 37° C. for 24 h.
# Day 2: Test compounds were prepared directly into the media. […] The microtiter plates were removed from the incubator and the media replaced with 100 μl of the dilutions of the compound solution. Every set of concentration was done in triplicate, and positive and negative controls were added to each plate. The plates were then incubated for 24 h at 37° C. with 5% CO2 in a humidified atmosphere.
# Day 3: The reagent containing the resazurin (CellTiter-Blue, Promega) was diluted in PBS (1:4) and added at 20% (v/v) to each well. The plates were then incubated at 37° C. for 2 h before the fluorescent reduction product was detected.
# Media only background values were subtracted before the data was analysed using GraphPad Prism. Compound concentration values were plotted as log values to enable a dose-response curve to be fitted and IC50 values determined (Table 7).
# The renal cell toxicity of the additional example compounds was assessed in an in vitro assay using the HK-2 cell as described in the example above.
substance,measurement,setting,value
Colistin [reference compound],MIC,E. coli ATCC25922,1 micrograms/mL
same,MIC,E. coli ATCC700928,0.25 micrograms/mL
same,MIC,E. coli NCTC12900,0.5 micrograms/mL
same,MIC,E. coli NCTC9001,2 micrograms/mL
same,MIC,P. aeruginosa ATCC 9721,0.5 micrograms/mL
same,MIC,P. aeruginosa ATCC10145,0.5 micrograms/mL
same,MIC,P. aeruginosa ATCC27853,0.5 micrograms/mL
same,MIC,[1],0.5 micrograms/mL
same,MIC,K. pneumoniae ATCC 4352,0.125 micrograms/mL
same,MIC,K. pneumoniae NCTC7427,0.25 micrograms/mL
same,MIC,K. pneumoniae NCTC8172,0.5 micrograms/mL
same,MIC,A. baumannii ATCCBAA-747,0.25 micrograms/mL
same,MIC,A. baumannii NCTC13423,<0.06 micrograms/mL
same,MIC,A. baumannii NCTC7844,0.125 micrograms/mL
same,MIC50 Clinical isolates,[2]; clinical isolates,2 µg/mL
same,MIC90 Clinical isolates,[2]; clinical isolates,2 µg/mL
same,MIC Range Clinical isolates,[2]; clinical isolates,0.5 to 4 µg/mL
same,MIC50 Resistant strains,[2]; resistant strains,2 µg/mL
same,MIC90 Resistant strains,[2]; resistant strains,2 µg/mL
same,MIC Range Resistant strains,[2]; resistant strains,1 to 4 µg/mL
same,MIC50 Clinical isolates,[3]; clinical isolates,2 µg/mL
same,MIC90 Clinical isolates,[3]; clinical isolates,2 µg/mL
same,MIC Range Clinical isolates,[3]; clinical isolates,0.5 to 4 µg/mL
same,MIC50 Resistant strains,[3]; resistant strains,1 µg/mL
same,MIC90 Resistant strains,[3]; resistant strains,1 µg/mL
same,MIC Range Resistant strains,[3]; resistant strains,0.25 to 2 µg/mL
same,MIC50 Clinical isolates,[4]; clinical isolates,2 µg/mL
same,MIC90 Clinical isolates,[4]; clinical isolates,4 µg/mL
same,MIC Range Clinical isolates,[4]; clinical isolates,1 to 16 µg/mL
same,MIC50 Resistant strains,[4]; resistant strains,2 µg/mL
same,MIC90 Resistant strains,[4]; resistant strains,8 µg/mL
same,MIC50 Clinical isolates,[5]; clinical isolates,2 µg/mL
same,MIC90 Clinical isolates,[5]; clinical isolates,4 µg/mL
same,MIC Range Clinical isolates,[5]; clinical isolates,0.25 to 4 µg/mL
same,MIC50 Resistant strains,[5]; resistant strains,2 µg/mL
same,MIC90 Resistant strains,[5]; resistant strains,2 µg/mL
same,MIC Range Resistant strains,[5]; resistant strains,0.5 to 2 µg/mL
same,Mean log10 CFU reduction vs. control,[6],2.60 log10 CFU
same,IC50 HK-2 cells,HK-2 cell line,28^a μg/mL
